According to paper PMC3834177 (Cancer Chemotherapy and Pharmacology, 2013):
Where two headings read alike, the source gives them in different places.

Columns and labels:
[1] = Midostaurin PK when administered with rifampicin; settings: for AUC(0-t) / Cmax / half-life / Tmax: human, plasma, oral, n = 20; for AUC(0-t): AUC0–last; for AUC(0-t) / Cmax: adjusted geometric mean; for Cmax: C max; for half-life: t 1/2, adjusted geometric mean; for Tmax: t max, median
Method: These endogenous molecules served as exploratory biomarkers for CYP3A4 activity in vivo [21, 22].
A point estimate and the corresponding 90 % CI for the treatment effect (test vs reference) were calculated. These were anti-logged to obtain the GMR and respective 90 % CI. […] The median difference was estimated with the Hodges–Lehmann estimator and its respective exact two-sided 90 % CI. All formal comparative statistical analyses were performed using SAS software.
(§1) The concentration of ketoconazole in plasma was assessed using a validated LC–MS/MS assay with an LLOQ of 50.0 ng/mL (WuXi Pharmatech Co, Ltd, China). The concentration of rifampicin in plasma was measured using a validated LC–MS/MS assay with an LLOQ of 5.0 ng/mL (SGS, Cephac Europe, SAS). Plasma concentrations of midazolam and its metabolite 1′-hydroxymidazolam, which is generated by CYP3A4 and CYP3A5 in humans, were measured using a validated LC–MS/MS assay with an LLOQ of ≈0.100 ng/mL (SGS, Cephac Europe, SAS). The plasma concentration of 4β-hydroxycholesterol was measured using a validated LC–MS/MS assay with an LLOQ of 3.0 ng/mL (SGS, Cephac Europe, SAS). The concentrations of 6β-hydroxycortisol and cortisol in urine were determined using validated LC–MS/MS assays with an LLOQ of 10.0 ng/mL for 6β-hydroxycortisol and 1.0 ng/mL for cortisol. The ratio of 6β-hydroxycortisol to cortisol was subsequently calculated (SGS, Cephac Europe, SAS). See Supplementary Table 2 for detailed bioanalytical methods for all 3 studies.

CYP3A4/5 = settings: in vitro; read-out: IC50, CYP3A4/5 activity (midazolam 1′-hydroxylation); cited from earlier work
mutant FLT3 = settings: in vitro; read-out: half-maximal inhibitory concentration (IC50), mutant FLT3; cited from earlier work
[2] = cited from earlier work
[3] = Midostaurin PK when administered with ketoconazole; settings: for Cmax / Tmax: human, plasma, oral, n = 18; for Cmax: C max, adjusted geometric mean; for Tmax: t max, median
Method: According to the US Food and Drug Administration, ketoconazole 400 mg once daily is the recommended dose to evaluate DDIs involving CYP3A4 inhibition. [drawing 1]
Adverse events (AEs) were recorded during the study and up to 1 month (28 days) after the end of study. Volunteers remained at the clinic until AEs were common toxicity criteria (CTC) grade ≤1.
A point estimate and the corresponding 90 % CI for the treatment effect were calculated for the test treatment compared with the reference. These were anti-logged to obtain the point estimate and the 90 % CI for the geometric mean ratio (GMR) on the untransformed scale. […] All ANOVAs were performed using SAS software (SAS Institute Inc., Cary, NC, USA).
as §1

[4] = tested on: human serum protein α1-acid glycoprotein (AAG); design: method as in PMID 11230495; settings: cited from earlier work
[5] = Placebo + midostaurin arm, rifampicin study
[6] = Placebo + midostaurin arm, ketoconazole study

In the case of CO[C@@H]1[C@H](N(C)C(=O)c2ccccc2)C[C@H]2O[C@]1(C)n1c3ccccc3c3c4c(c5c6ccccc6n2c5c31)C(=O)NC4O (mixture of isomers) [CGP52421], the “decrease in exposure (AUClast) in midostaurin + rifampicin arm” value ([1]; compared with midostaurin alone) is reported as 2.45 fold, the AUC(0-t) [1, 5] is reported as 14600 ng·h/mL and the AUC(0-t) ([1]; Rifampicin + midostaurin arm) is reported as 5960 ng·h/mL. It also gave a Cmax [1, 5] of 196 ng/mL, a Cmax ([1]; Rifampicin + midostaurin arm) of 128 ng/mL and a half-life [1, 5] of 175 h. It also gave a half-life ([1]; Rifampicin + midostaurin arm) of 87.1 h, a Tmax [1, 5] of 3 h and a Tmax ([1]; Rifampicin + midostaurin arm) of 2.51 h. For the same compound, the “median t max prolonged in midostaurin + placebo arm compared with midostaurin + rifampicin arm” value ([1]; in vivo) was 1.2 fold, the IC50 (CYP3A4/5) was 1500 nM and the IC50 (mutant FLT3) was 584 nM. For the same compound, the “apparent elimination half-life (t 1/2)” value [2] was 384 to 744 h, the half-life [2] was greater than 1 month and the “major pathway for elimination” value [2] was “Fecal excretion”. The Cmax ([3]; Ketoconazole + midostaurin arm) was 70.9 ng/mL, the Cmax [3, 6] was 145 ng/mL and the Tmax ([3]; Ketoconazole + midostaurin arm) was 120 h. The Tmax [3, 6] was 2 h, the “t max, Hodges–Lehmann estimate of median difference (90 % distribution-free CI)” value ([3]; ketoconazole + midostaurin vs placebo + midostaurin) was 116.7 (93.9, 117.9) h and the “bound to AAG” value [4] was 88–98%.
